{
  "source": "BindingDB's records for doi:10.1016/s0960-894x(00)00113-x",
  "about": "(Kyoto University, 2000)",
  "data": [
    {"assay": "The compound was tested for its inhibitory activity against platelet aggregation", "units": {"IC50": "nM"}, "values": [
      {"smiles": "CC(C)(C(=O)/C=C/c1ccc(C(=N)N)cc1)C(=O)N1CCC(CC(=O)O)CC1", "IC50": 3470},
      {"smiles": "N=C(N)c1ccc(C(=O)NCCC(=O)N2CCC(C(=O)O)CC2)cc1", "IC50": 33100},
      {"smiles": "CC(C)(C(=O)N1CCC(CC(=O)O)CC1)[C@H](NC(=O)c1ccc(C(=N)N)cc1)c1cccc(Cl)c1", "IC50": 126},
      {"smiles": "CC[C@@H](NC(=O)c1ccc(C(=N)N2CCOCC2)cc1F)C(C)(C)C(=O)N1CCC(CC(=O)O)CC1", "IC50": 79},
      {"smiles": "CC(C)[C@@H](NC(=O)c1ccc(C(=N)N)cc1)C(C)(C)C(=O)N1CCC(CC(=O)O)CC1", "IC50": 76},
      {"smiles": "CC(C)(C(=O)N1CCC(CC(=O)O)CC1)[C@H](NC(=O)c1ccc(C(=N)N)cc1)c1ccccc1", "IC50": 115},
      {"smiles": "N=C(N)c1ccc(C(=O)NCCC(=O)N2CCC(COC(=O)O)CC2)cc1", "IC50": 18200},
      {"smiles": "CCCC[C@@H](NC(=O)c1ccc(C(=N)N)cc1)C(C)(C)C(=O)N1CCC(CC(=O)O)CC1", "IC50": 41},
      {"smiles": "CC[C@@H](NC(=O)c1ccc(C(=N)N2CCN(C)CC2)cc1F)C(C)(C)C(=O)N1CCC(CC(=O)O)CC1", "IC50": 36},
      {"smiles": "CC[C@@H](NC(=O)c1ccc(C(=N)N2CCC(O)CC2)cc1F)C(C)(C)C(=O)N1CCC(CC(=O)O)CC1", "IC50": 24},
      {"smiles": "CN(CC(=O)N1CCC(CC(=O)O)CC1)C(=O)c1ccc(C(=N)N)cc1", "IC50": 7590},
      {"smiles": "C/C=C/[C@@H](NC(=O)c1ccc(C(=N)N)cc1)C(C)(C)C(=O)N1CCC(CC(=O)O)CC1", "IC50": 85},
      {"smiles": "CCCCNC(=N)c1ccc(C(=O)N[C@H](CC)C(C)(C)C(=O)N2CCC(CC(=O)O)CC2)c(F)c1", "IC50": 501},
      {"smiles": "COC(CCc1ccc(C(=N)N)cc1)C(C)(C)C(=O)N1CCC(CC(=O)O)CC1", "note": "(stereo unspecified)", "IC50": 240},
      {"smiles": "CC(C)(CNC(=O)c1ccc(C(=N)N)cc1)C(=O)N1CCC(CC(=O)O)CC1", "note": "[{1-[3-(4-Carbamimidoyl-benzoylamino)-2,2-dimethyl-propionyl]-piperidin-4-yl}-acetic acid]", "IC50": 575},
      {"smiles": "N=C(N)c1ccc(C(=O)N[C@@H](CC(=O)N2CCC(CC(=O)O)CC2)C(=O)OC2CCCCC2)cc1", "IC50": 1900},
      {"smiles": "CN(C(=O)c1ccc(C(=N)N)cc1)[C@H](c1ccccc1)C(C)(C)C(=O)N1CCC(CC(=O)O)CC1", "IC50": 151},
      {"smiles": "CC(C)(C(=O)N1CCC(CC(=O)O)CC1)C(/C=C/c1ccc(C(=N)N)cc1)OCc1ccccc1", "note": "(stereo unspecified)", "IC50": 363},
      {"smiles": "N=C(N)c1ccc(C(=O)N[C@H](CC(=O)N2CCC(CC(=O)O)CC2)c2ccccc2)cc1", "IC50": 5250},
      {"smiles": "CC(C)(C(=O)N1CCC(CC(=O)O)CC1)[C@H](NC(=O)c1ccc(C(=N)N)cc1Cl)c1ccccc1", "IC50": 186},
      {"smiles": "CCCCC[C@@H](NC(=O)c1ccc(C(=N)N)cc1)C(C)(C)C(=O)N1CCC(CC(=O)O)CC1", "IC50": 79},
      {"smiles": "C[C@H](NC(=O)c1ccc(CNC(=N)N)cc1)C(=O)N1CCC(C(=O)O)CC1", "IC50": 708000},
      {"smiles": "CCOC(/C=C/c1ccc(C(=N)N)cc1)C(C)(C)C(=O)N1CCC(CC(=O)O)CC1", "note": "(stereo unspecified)", "IC50": 129},
      {"smiles": "CC(C)C[C@@H](NC(=O)c1ccc(C(=N)N)cc1)C(C)(C)C(=O)N1CCC(CC(=O)O)CC1", "IC50": 41},
      {"smiles": "CC(C)(CCC(=O)c1ccc(C(=N)N)cc1)C(=O)N1CCC(CC(=O)O)CC1", "IC50": 631},
      {"smiles": "C#CCN(C(=O)c1ccc(C(=N)N)cc1)[C@H](CCCC)C(C)(C)C(=O)N1CCC(CC(=O)O)CC1", "IC50": 708},
      {"smiles": "C=CCOC(/C=C/c1ccc(C(=N)N)cc1)C(C)(C)C(=O)N1CCC(CC(=O)O)CC1", "note": "(stereo unspecified)", "IC50": 135},
      {"smiles": "CC(C)(C(=O)N1CCC(CC(=O)O)CC1)[C@H](NC(=O)c1ccc(C(=N)N)cc1)c1ccc(O)cc1", "IC50": 110},
      {"smiles": "C[C@@H](NC(=O)c1ccc(C(=N)N)cc1F)C(C)(C)C(=O)N1CCC(CC(=O)O)CC1", "IC50": 38},
      {"smiles": "CCC[C@@H](NC(=O)c1ccc(C(=N)N)cc1)C(C)(C)C(=O)N1CCC(CC(=O)O)CC1", "IC50": 41},
      {"smiles": "CC[C@@H](NC(=O)c1ccc(C(=N)N2CCSC2)cc1F)C(C)(C)C(=O)N1CCC(CC(=O)O)CC1", "IC50": 22},
      {"smiles": "N=C(N)c1ccc(C(=O)N[C@@H](CC(=O)N2CCC(CC(=O)O)CC2)C(=O)Oc2ccccc2)cc1", "IC50": 4070},
      {"smiles": "CC(C)[C@@H](CC(=O)N1CCC(CC(=O)O)CC1)NC(=O)c1ccc(C(=N)N)cc1", "IC50": 9120},
      {"smiles": "CC[C@@H](NC(=O)c1ccc(C(=N)N2CCN(c3ccc(F)cc3)CC2)cc1F)C(C)(C)C(=O)N1CCC(CC(=O)O)CC1", "IC50": 40},
      {"smiles": "CC(C)(C(=O)N1CCC(CC(=O)O)CC1)[C@H](NC(=O)c1ccc(C(=N)N)cc1)c1cccc(O)c1", "IC50": 38},
      {"smiles": "C[C@H](NC(=O)c1ccc(C(=N)N)cc1)C(=O)N1CCC(C(=O)O)CC1", "IC50": 110000},
      {"smiles": "CC(C)(C(=O)N1CCC(CC(=O)O)CC1)[C@H](NC(=O)c1ccc(C(=N)N)cc1)c1ccc2ccccc2c1", "IC50": 191},
      {"smiles": "C[C@H](NC(=O)c1ccc(C(=N)N)cc1)C(=O)N1CCC(CC(=O)O)CC1", "IC50": 30200},
      {"smiles": "COC(=O)C1CCN(C(=O)CN(C)C(=O)c2ccc(C(=N)N)cc2)CC1", "IC50": 331000},
      {"smiles": "CN(CC(=O)N1CCC(C(=O)O)CC1)C(=O)c1ccc(N=C(N)N)cc1", "IC50": 100000},
      {"smiles": "CCCC[C@@H](NC(=O)c1ccc(C(=N)N)cc1F)C(C)(C)C(=O)N1CCC(CC(=O)O)CC1", "IC50": 37},
      {"smiles": "CC[C@@H](NC(=O)c1ccc(C(=N)N)cc1F)C(C)(C)C(=O)N1CCC(CC(=O)O)CC1", "IC50": 31},
      {"smiles": "NC(N)=Nc1ccc(C(=O)NCCC(=O)N2CCC(C(=O)O)CC2)cc1", "IC50": 759000},
      {"smiles": "CC(C)(C(=O)N1CCC(CC(=O)O)CC1)[C@H](NC(=O)c1ccc(C(=N)N)cc1)c1ccc(Cl)cc1", "IC50": 331},
      {"smiles": "CCCCCCOC(/C=C/c1ccc(C(=N)N)cc1)C(C)(C)C(=O)N1CCC(CC(=O)O)CC1", "note": "(stereo unspecified)", "IC50": 794},
      {"smiles": "CC[C@@H](NC(=O)c1ccc(C(=N)N2CCCC2)cc1F)C(C)(C)C(=O)N1CCC(CC(=O)O)CC1", "IC50": 45},
      {"smiles": "CN(CC(=O)N1CCC(C(=O)O)CC1)C(=O)c1ccc(CNC(=N)N)cc1", "IC50": 52500},
      {"smiles": "C[C@@H](NC(=O)c1ccc(C(=N)N)cc1)C(C)(C)C(=O)N1CCC(CC(=O)O)CC1", "IC50": 41},
      {"smiles": "COC(/C=C/c1ccc(C(=N)N)cc1)C(C)(C)C(=O)N1CCC(CC(=O)O)CC1", "note": "(stereo unspecified)", "IC50": 126},
      {"smiles": "CN(CCC(=O)N1CCC(CC(=O)O)CC1)C(=O)c1ccc(C(=N)N)cc1", "IC50": 6460},
      {"smiles": "CN(CC(=O)N1CCC(CC(=O)O)CC1)C(=O)c1ccc(N=C(N)N)cc1", "IC50": 759000},
      {"smiles": "CC[C@@H](NC(=O)c1ccc(C(=N)N)cc1)C(C)(C)C(=O)N1CCC(CC(=O)O)CC1", "IC50": 43},
      {"smiles": "CC(C)(C(=O)N1CCC(CC(=O)O)CC1)C(O)/C=C/c1ccc(C(=N)N)cc1", "note": "(stereo unspecified)", "IC50": 302},
      {"smiles": "CC(C)(/C=C/C(=O)c1ccc(C(=N)N)cc1)C(=O)N1CCC(CC(=O)O)CC1", "note": "[{1-[(E)-5-(4-Carbamimidoyl-phenyl)-2,2-dimethyl-5-oxo-pent-3-enoyl]-piperidin-4-yl}-acetic acid]", "IC50": 209},
      {"smiles": "C[C@@H](CC(=O)N1CCC(CC(=O)O)CC1)NC(=O)c1ccc(C(=N)N)cc1", "IC50": 5010},
      {"smiles": "CC(C)(C(=O)N1CCC(CC(=O)O)CC1)[C@@H](CCc1ccccc1)NC(=O)c1ccc(C(=N)N)cc1", "IC50": 79}
    ]}
  ]
}
